# Experimental data reported in US3978055A, “Arylamino pyrimidinic derivatives” (priority 1973, dated 1976).
# Assays:
# Shay ulcers = assay: Gastric ulcers provoked by tying of the pylorus (Shay ulcers); format: in vivo; details: intraduodenal; rat, 50mg/kg/i.d.; read-out: Percentage reduction of shay ulcers
# Protocol: The derivatives of formula I, administered by oral means, reduce the extent of gastric ulcers provoked in a rat by tying of the pylorus (Shay ulcers)
# Table IV indicated, by way of example, the results obtained by the administration of 50mg/kg/i.d. of different derivatives of formula I.
# [1] = system: isolated heart of guinea-pig; assay: Augmentation of flow of coronary vessels of isolated heart (vasodilatatory); details: Cavia porcellus, read-out: Percentage augmentation of flow of isolated heart of guinea-pig; for activation at 1 µg/mL: 1 μg/ml
# Protocol: The derivatives of formula I are capable of augmenting the flow of the coronary vessels of this isolated heart of a guinea - pig, when said derivatives are added in the perfusion liquid of said organ.
# The percentage augmentation of the flow of the isolated heart of the guinea - pig by adding different derivatives of formula I to the perfusion liquid are given by way of example in the following Table V.
# [2] = system: painful stretchings caused by phenylbenzoquinone; assay: Analgesic test with phenylbenzoquinone (painful stretchings); format: in vivo; details: Mus musculus, po; for inhibition in vivo at 100 mg/kg: read-out: Percentage of diminution of the number of painful stretchings; for ED50: read-out: 105 DE (DE 50)
# [3] = Lethal doses / percentage mortality; format: in vivo; details: in vivo, mouse; for LD50: po, Table IX, read-out: DE 50 (second column; DL 50) (converted)
# From the text: As a result of a comparison between the pharmacologically active doses mentioned above, and the lethal doses listed in the following table XIV, the difference between the doses is sufficiently great to permit the utilisation of the derivatives of formula I in therapeutics.
# [4] = system: local oedema caused by sub-plantar injection of carraghenine; assay: Sub-plantar oedema caused by carraghenine (antiinflammatory); format: in vivo, rat; details: rat, 100 mg/kg/PO; read-out: Percentage reduction of subplantar oedema
# From the text: These properties are shown by a diminution of the local oedema caused by the sub-plantar injection of a phlogogenic agent, such as carraghenine, in the rat following the oral administration of derivatives of formula I.
# volume of urine emitted = assay: Augmentation of urinary elimination (diuretic properties); format: in vivo; details: po; mouse, 25mg/kg/p.o., 6 hours; read-out: Percentage augmentation of urinary elimination
# Protocol: The derivatives of formula I, administered by oral means to the mouse, simultaneously with a volume of 1ml of an isotonic solution of sodium chloride per 25g of the corporeal weight of the mouse, are capable of provoking an augmentation of the volume of urine emitted by reference to control animals, the volume being measured for 6 hours following administration.
# The following Table VII indicates, by way of example the percentage augmentation of urinary elimination resulting from the administration of 25mg/kg/p.o. of different derivatives of formula I.
# [5] = system: arterial pressure of anaesthetised rat; assay: Lowering of arterial pressure of anaesthetised rat (hypotensive properties); format: in vivo; details: 1 mg/kg/i.v.; for Duration of effect: hypotensive effect
# From the text: Administered by intraveinous means to an anaesthetised rat, the derivatives of formula I provoke a lowering of the arterial pressure.
# By way of example, the following Table VIII mentions the results obtained by administration of different derivatives of formula I.
# [6] = system: number of explorations in the escape enclosure; assay: Number of explorations in the escape enclosure (sedative properties); format: in vivo, mouse; details: po; mouse, escape enclosure, 100mg/kg/p.o.; read-out: Percentage diminution of number of explorations
smiles,measurement,setting,value
Cc1cc(Nc2ccc(OCCN3CCCCCC3)cc2)nc(-c2cccc(Cl)c2)n1 [730 283],inhibition in vivo at 50 mg/kg,Shay ulcers,45%
same,activation at 0.1 µg/mL,[1]; 0.1 μg/ml,61%
same,inhibition in vivo at 100 mg/kg,[2],57%
same,mortality,"[3]; 1000 mg/kg, 1 000 mg/kg/PO",~50%
CCOC(=O)c1ccc(Nc2cc(C)nc(-c3ccc(Cl)cc3)n2)cc1 [72 283],inhibition in vivo at 100 mg/kg,[4],40%
same,mortality,"[3]; 2000 mg/kg, 2 000 mg/kg/PO",0%
Cc1cc(Nc2ccc(C(=O)N(C)C)cc2)nc(-c2ccc(Cl)cc2)n1 [72 327],change in vivo at 25 mg/kg,volume of urine emitted,85%
same,inhibition in vivo at 100 mg/kg,[4],35%
same,Percentage reduction of arterial pressure of anaesthetised rat,[5],30%
same,Duration of effect,[5],30 mn
same,mortality,"[3]; 2000 mg/kg, 2 000 mg/kg/PO",0%
Cc1cc(Nc2ccc(OCCN3CCCCCC3)cc2)nc(-c2ccccc2)n1 [730 379],mortality,[3]; 625 mg/kg/PO,~50%
Cc1cc(Nc2ccc(OCCN3CCCCC3)cc2)nc(-c2ccccc2)n1 [730 221],mortality,[3]; 520 mg/kg/PO,~50%
Cc1cc(Nc2ccccc2C(=O)OCC2COC(C)(C)O2)nc(-c2cccc(F)c2)n1 (stereo not shown) [72 796],activation at 1 µg/mL,[1],60%
same,mortality,"[3]; 2000 mg/kg, 2 000 mg/kg/PO",0%
COc1cc(-c2nc(C)cc(Nc3ccc(C(=O)N4CCN(C)CC4)cc3)n2)cc(OC)c1OC [72 462],inhibition in vivo at 100 mg/kg,[2],40%
same,inhibition in vivo at 100 mg/kg,[4],35%
same,mortality,"[3]; 2000 mg/kg, 2 000 mg/kg/PO",0%
Cc1cc(Nc2ccccc2C(=O)OCC2COC(C)(C)O2)nc(-c2ccc3c(c2)OCO3)n1 (stereo not shown) [72 701],change in vivo at 25 mg/kg,volume of urine emitted,45%
same,inhibition in vivo at 100 mg/kg,[2],45%
same,mortality,"[3]; 2000 mg/kg, 2 000 mg/kg/PO",0%
Cc1cc(Nc2ccc(C(=O)N3CCN(C)CC3)cc2)nc(-c2ccc(Cl)cc2)n1 [72 292],change in vivo at 25 mg/kg,volume of urine emitted,55%
same,mortality,"[3]; 2000 mg/kg, 2 000 mg/kg/PO",0%
Cc1cc(Nc2ccc(C(=O)N3CCCC3)cc2)nc(-c2ccc3c(c2)OCO3)n1 [72 623],change in vivo at 25 mg/kg,volume of urine emitted,85%
same,mortality,"[3]; 2000 mg/kg, 2 000 mg/kg/PO",0%
Cc1cc(Nc2ccc(OCCN3CCOCC3)cc2)nc(-c2ccc(N(C)C)cc2)n1 [740 140],ED50,[2],33 mg/kg
same,Percentage reduction of arterial pressure of anaesthetised rat,[5],40%
same,Duration of effect,[5],30 mn
same,mortality,"[3]; 2000 mg/kg, 2 000 mg/kg/PO",0%
same,LD50,[3],> 2000 mg/kg
COc1cc(-c2nc(C)cc(Nc3ccc(C(=O)N4CCN(c5ccccc5)CC4)cc3)n2)cc(OC)c1OC [72 450],inhibition in vivo at 100 mg/kg,[6],35%
same,activation at 1 µg/mL,[1],85%
same,mortality,"[3]; 2000 mg/kg, 2 000 mg/kg/PO",0%
COc1cc(-c2nc(C)cc(Nc3ccccc3C(N)=O)n2)cc(OC)c1OC [72 442],inhibition in vivo at 100 mg/kg,[6],60%
same,inhibition in vivo at 100 mg/kg,[2],70%
same,inhibition in vivo at 100 mg/kg,[4],55%
same,Percentage reduction of arterial pressure of anaesthetised rat,[5],30%
same,Duration of effect,[5],20 mn
same,mortality,"[3]; 2000 mg/kg, 2 000 mg/kg/PO",0%
Cc1cc(Nc2ccc(C(=O)N3CCCCC3)cc2)nc(-c2ccc3c(c2)OCO3)n1 [72 687],inhibition in vivo at 50 mg/kg,Shay ulcers,40%
same,mortality,"[3]; 2000 mg/kg, 2 000 mg/kg/PO",0%
CCOC(=O)c1ccc(Nc2cc(C)nc(-c3ccc4c(c3)OCO4)n2)cc1 [72 613],inhibition in vivo at 50 mg/kg,Shay ulcers,70%
same,activation at 1 µg/mL,[1],85%
same,mortality,"[3]; 2000 mg/kg, 2 000 mg/kg/PO",0%
Cc1cc(Nc2ccc(OCCN(C)C)cc2)nc(-c2cccc(F)c2)n1 [730 224],ED50,[2],30 mg/kg
same,mortality,"[3]; 2000 mg/kg, 2 000 mg/kg/PO",0%
same,LD50,[3],> 2000 mg/kg
Cc1cc(Nc2ccc(OCCN3CCOCC3)cc2)nc(-c2ccc3c(c2)OCO3)n1 [730 731],change in vivo at 25 mg/kg,volume of urine emitted,37%
same,ED50,[2],27 mg/kg
same,Percentage reduction of arterial pressure of anaesthetised rat,[5],29%
same,Duration of effect,[5],30 mn
same,mortality,"[3]; 2000 mg/kg, 2 000 mg/kg/PO",0%
same,LD50,[3],> 2000 mg/kg
CCOC(=O)c1ccc(Nc2cc(C)nc(-c3cccc(F)c3)n2)cc1 [72 778],inhibition in vivo at 100 mg/kg,[6],35%
same,mortality,"[3]; 2000 mg/kg, 2 000 mg/kg/PO",0%
COc1cc(-c2nc(C)cc(Nc3ccc(C(=O)N4CCOCC4)cc3)n2)cc(OC)c1OC [72 536],inhibition in vivo at 100 mg/kg,[6],75%
same,inhibition in vivo at 100 mg/kg,[4],35%
same,mortality,"[3]; 2000 mg/kg, 2 000 mg/kg/PO",0%
